Measurements: US20090226384A1, “ANTIMICROBIAL COMPOSITION CONTAINING TRICLOSAN AND AT LEAST ONE FUNCTIONALIZED HYDROCARBON” (priority 2006, published 2009)
In brackets after ≈: the same amount, converted by molar mass. Where two headings read alike, the source gives them in different places.

Tests used:
[1] = test system: Malassezia restricta CBS 7877; assay: MIC by macrobroth double dilution (NCCLS); assay type: cell-based
Experimental: (§1) MIC value—is the lowest concentration of the antimicrobial agent required to inhibit growth of the microorganism was determined by the macrobroth double dilution method as per the NCCLS guidelines. (Reference Method for broth dilution antifungal susceptibility testing of Yeasts, Approved Standard; M27A, Vol. 17, No. 9, 1997 & Methods for dilution antimicrobial susceptibility tests for bacteria that grow aerobically; Approved Standard—5th Ed., M7-A5, Vol. 20, No. 2, 2000. National Committee for Clinical Laboratory Standards, Wayne, Pa.).
(§2) The test substances viz., TCS, CMB, ZPTO, KTZ, LGO, Citral, Nerol & Geraniol were prepared as stock solutions. Weighed 10 mg of TCS, CMB, ZPTO, & KTZ individually and dissolved in 1 ml of solvent (IN NaOH for TCS and DMSO for CMB, ZPTO & KTZ) and diluted in 19 ml SDB. The concentration of the prepared substances was 500 μg/ml. Similarly, weighed 400 mg of LGO, Citral, Nerol & Geraniol individually and dissolved in 2 ml DMSO and diluted in 18 ml SDB. The concentration of LGO, Citral, Nerol & Geraniol was 20000 μg/ml. All test solutions were prepared afresh prior to determination of MIC.
(§3) S. aureus, S. epidermidis and B. subtilis were cultured in Mueller Hinton Agar (MHA) for 24 hrs. at 37° C. 1-2 colonies were suspended in MHB overnight at 37° C. C. albicans and A. niger were cultured in Sabauraud Dextrose Agar (SDA) at 28° C. for 24 hrs and 4 days respectively. 1-2 colonies of C. albicans was suspended in SDB and cultured overnight at 28° C. Aspergillus spores were washed with physiological saline prior to testing. M. furfur was cultured in SDA with 1% Tween 80 for 72 hrs at 32° C. Colonies were suspended in SDB with 1% Tween 80 and incubated at 32° C. M. restricta was cultured in Dixon agar at 32° C. for 3-4 days. Colonies were suspended in saline prior to testing.
(§4) Colonies suspended in broth/saline were determined for counts photometrically. (Hammer K A, et al.: Antimicrob. Agents Chemo., (2000), 44(2): 467-469). The organisms were diluted such that the final concentration was 1×10^6 cfu/ml for S. aureus, S. epidermidis and B. subtilis, 1×10^5 cfu/ml for C. albicans and A. niger and 2×10^3 cfu/ml for M. furfur and M. restricta.
(§5) Double fold serial dilutions were done with the test substance, such that the final concentration of TCS was between 250 μg/ml and 0.03 μg/ml; and that of functionalized hydrocarbon (Citral, Nerol, Geraniol) and/or mixtures containing such functionalized hydrocarbons (LGO) was between 10000 μg/ml-19.53 μg/ml. Inoculated organisms were added to the tubes and required controls were also set up in the assay to rule out contamination/inactivation of the test substance.
(§6) Tubes were incubated for 24 hrs at 37° C. for S. aureus, S. epidermidis and B. subtilis; at 28° C. for C. albicans; for 48 hrs at 28° C. for A. niger, 32° C. for M, furfur and M. restricta. At the end of the incubation period, 10 μl aliquots from each tube were spot inoculated onto Nutrient agar (for bacteria), SDA (for C. albicans & A. niger), SDA with 1% Tween 80 for M. furfur and Dixon Agar for M. restricta. The plates were incubated for 24 hrs at 37° C. (S. aureus, S. epidermidis & B. subtilis), at 28° C. (C. albicans); 3-4 days at 28° C. (A. niger), 48-72 hrs at 32° C. (M. furfur & M. restricta) when the colonies became visible.
(§7) At the end of the incubation period, plates were checked for growth of colonies.
(§8) 140 mg of the sample was dissolved in 2 ml of Dimethyl Sulfoxide (DMSO) and further diluted in 18 ml of SDB. The final concentration of antimicrobial and functionalized hydrocarbon and/or mixtures containing such functionalized hydrocarbons in the mixture was 333.33 μg/ml and 6666.66 μg/ml respectively.
(§9) 205 mg of the sample was dissolved in 2 ml of Dimethyl Sulfoxide (DMSO) and further diluted in 18 ml of SDB. The final concentration of antimicrobial and functionalized hydrocarbon and/or mixtures containing such functionalized hydrocarbons in the mixture was 250 μg/ml and 10000 μg/ml respectively.

[2] = test system: Staphylococcus epidermidis MTCC 435; assay: MIC by macrobroth double dilution (NCCLS); assay type: cell-based
Experimental: as §1, §2, §3, §4, §5, §6, §7, §8, §9

[3] = test system: Bacillus subtilis MTCC 441; assay: MIC by macrobroth double dilution (NCCLS); assay type: cell-based
Experimental: as §1, §2, §3, §4, §5, §6, §7, §8, §9

[4] = test system: Aspergillus niger MTCC 1344; assay: MIC by macrobroth double dilution (NCCLS); assay type: cell-based
Experimental: as §1, §2, §3, §4, §5, §6, §7, §8, §9

[5] = test system: Staphylococcus aureus MTCC 96; assay: MIC by macrobroth double dilution (NCCLS); assay type: cell-based
Experimental: as §1, §2, §3, §4, §5, §6, §7, §8, §9

[6] = test system: Candida albicans MTCC 3017; assay: MIC by macrobroth double dilution (NCCLS); assay type: cell-based
Experimental: as §1, §2, §3, §4, §5, §6, §7, §8, §9

[7] = test system: Malassezia furfur (Pityrosporum ovale) MTCC 1374; assay: MIC by macrobroth double dilution (NCCLS); assay type: cell-based
Experimental: as §1, §2, §3, §4, §5, §6, §7, §8, §9

[8] = Bhargava & Leonard 1996; cited from earlier work
[9] = CBS7877, individual ingredient, M. restricta, read-out: MIC
[10] = MTCC435, individual ingredient, S. epidermidis, read-out: MIC
[11] = MTCC441, individual ingredient, B. subtilis, read-out: MIC
[12] = MTCC1344, individual ingredient, A. niger, read-out: MIC
[13] = MTCC96, individual ingredient, S. aureus, read-out: MIC
[14] = MTCC3017, individual ingredient, C. albicans, read-out: MIC
[15] = Malassezia furfur, MTCC1374, individual ingredient, M. furfur, read-out: MIC

Row | MIC [1, 9] [µg/mL] | MIC [2, 10] [µg/mL] | MIC [3, 11] [µg/mL] | MIC [4, 12] [µg/mL] | MIC [5, 13] [µg/mL] | MIC [6, 14] [µg/mL] | MIC [7, 15] [µg/mL] | Compound | further results
1 | 156 (≈ 1030 µM) | 312 (≈ 2050 µM) | 5000 (≈ 32800 µM) | 625 (≈ 4110 µM) | 312 (≈ 2050 µM) | 156 (≈ 1030 µM) | 39.1 (≈ 257 µM) | CC(C)=CCCC(C)=CC=O [Citral] | 
2 | 312 (≈ 2030 µM) | 1250 (≈ 8100 µM) | 2500 (≈ 16200 µM) | 5000 (≈ 32400 µM) | 5000 (≈ 32400 µM) | 1250 (≈ 8100 µM) | 156 (≈ 1010 µM) | CC(C)=CCC/C(C)=C/CO [Geraniol] | 
3 |  |  |  |  |  |  | 0.48 (≈ 0.903 µM) | CC(=O)N1CCN(c2ccc(OCC3COC(Cn4ccnc4)(c4ccc(Cl)cc4Cl)O3)cc2)CC1 (stereo not drawn) [KTZ, Ketoconazole] | 
4 |  |  |  |  |  |  | 1.95 (≈ 6.66 µM) | CC(C)(C)C(=O)C(Oc1ccc(Cl)cc1)n1ccnc1 (stereo not drawn) [CMB, Climbazole] | 
5 |  |  |  |  |  |  |  | Oc1cc(Cl)ccc1Oc1ccc(Cl)cc1Cl [TCS, 2,4,4′-trichloro-2′-hydroxydiphenyl ether, reference compound] | MIC ([1]; CBS7877): 62.5 µg/mL (≈ 216 µM); MIC ([2]; MTCC435): 7.81 µg/mL (≈ 27 µM); MIC ([3]; MTCC441): 15.6 µg/mL (≈ 53.9 µM); MIC ([4]; MTCC1344): 31.2 µg/mL (≈ 108 µM); MIC ([5]; MTCC96): 1.95 µg/mL (≈ 6.73 µM); MIC ([6]; MTCC3017): 15.6 µg/mL (≈ 53.9 µM); MIC ([7]; Malassezia furfur, MTCC1374): 62.5 µg/mL (≈ 216 µM); carcinogenic, mutagenic or teratogenic effects [8]: not found to have any carcinogenic, mutagenic or teratogenic effects; toxicity to humans and other mammals [8]: relatively non-toxic
6 | 312 (≈ 2030 µM) | 1250 (≈ 8100 µM) | 10000 (≈ 64800 µM) | 1250 (≈ 8100 µM) | 5000 (≈ 32400 µM) | 1250 (≈ 8100 µM) | 156 (≈ 1010 µM) | CC(C)=CCC/C(C)=C\CO [Nerol] | 
7 |  |  |  |  |  |  |  | Zinc Pyrithione [ZPTO] | MIC ([7]; individual ingredient, M. furfur): 3.9 µg/mL
